What was measured:
Type in all cases: cell-based, mouse
Primary murine B cells = experiment: CFSE dilution / Sytox Blue FACS of primary murine B cells; conditions: 72 hours; absence of BLyS; FIG. 3
Experimental: Primary murine B cells were purified by positive selection as described above. For cultures >48 hours old, proliferation was quantified by carboxyfluorescein diacetate, succinimidyl ester (CFSE) dilution and cell death by TO-PRO-3 binding. To label the cells with CFSE, the cells were first washed 2 times with PBS. Next, the stock of CFSE was diluted to 10 μM in PBS and the cells were brought to 1×10^7 cells/ml. The cells were mixed at a 1:1 ratio with 10 μM CFSE and mixed gently for 2 minutes. The CFSE labeling reaction was stopped by adding heat inactivated fetal calf serum equal in volume to the starting volume for the cell suspension. […] Proliferation was measured by fluorophore dilution at 60-72 hours by flow cytometry. […]
Primary murine B cells were labeled and prepared as in Example 2.7 and stimulated with either media alone, […] of TLR9 ligand CpG oligodeoxynucleotide (ODN) 1826, […] of the mouse anti-chromatin autoantibody PL2-3 or […] DVD3759 in the presence or absence of […] of the B cell survival factor BLyS. After 72 hours, cells were stained with 1 μM of the cell permeable DNA stain Sytox Blue and analyzed by fluorescence activated cell sorting (FACS). Cell division was determined by dilution of CFSE and dead cells were identified by staining with Sytox Blue.

[1] = system: Dnase2−/− Ifnar1−/− DKO B cells; experiment: 3H-thymidine incorporation of B220-purified B cells, DKO; conditions: 24 hours, FIG. 10C
Text: (§1) Mice: RF and Tlr-9^−/− mice have been described previously (Uccellini et al. (2008) J. Immunol. 181:5875-5884), The DNase II-deficient mice on a C57BL/6 background were kindly provided by Dr. S, Nagata and obtained from the RIKEN Institute. […] and Unc93B1-deficient mice were obtained from Jackson Lab. DnaseII^−/− Ifnar1^−/− (Het), DnaseII^−/− Ifnar1−/− (DKO), and DnaseII^−/− Unc93b1^−/− (TKO), were bred at UMMS. All mice were maintained at the Department of Animal Medicine of the University of Massachusetts Medical School in accordance with the regulations of the American Association for the Accreditation of Laboratory Animal Care.
(§2) Proliferation of B220+ B cells: B cells were purified by magnetic bead separation using CD45R/B220-conjugated magnetic particles (BD Biosciences, San Jose, Calif., USA) and stimulated as described previously (Nundel et al. (2013) J. Leukoc. Biol. 94:865-875) with 15 μg/ml goat anti-mouse IgM F(ab′)2 (Jackson ImmunoResearch), ODN1826 (CpG; Idera Pharmaceuticals), anti-DNA-mAb (Leadbetter et al. (2002) Nature 416:603-607), or DVD-Ig proteins (1 μg/ml). B cell proliferation was assessed by ^3H-thymidine (Amersham Biosciences, Piscataway, N.J., USA) incorporation at 24 hours post-stimulation. For long-term proliferation assays, B220-purified B cells were labeled with a final concentration of 2.5 μM CFSE (Life Technologies) in PBS for 2 minutes. […]

[2] = system: Dnase2−/− Ifnar1−/− Unc93b1−/− TKO B cells; experiment: 3H-thymidine incorporation of B220-purified B cells, TKO; conditions: 24 hours, FIG. 10C
Text: as §1, §2

ODN 1826 [reference compound]
cell division (CFSE dilution) and cell death (Sytox Blue) (Primary murine B cells): post-proliferative cell death was not observed
response of DKO B cells [1]: normal response
response of TKO B cells [2]: failed to respond

— patent US20150125397A1, “DUAL SPECIFIC BINDING PROTEINS DIRECTED AGAINST IMMUNE CELL RECEPTORS AND AUTOANTIGENS” (ABBVIE INC., priority 2013, published 2015)
